Assay results published in publication PMC4809600, “The Influence of Chronic Wound Extracts on Inflammatory Cytokine and Histatin Stability” (PLoS ONE, 2016).
Where no end group is shown, it is not given here.

Experiments:
[1] = Stability in CWE with protease inhibitor cocktail (PIC), capillary zone electrophoresis; assay type: in vitro ADME, human; settings: 37°C, CZE, 0 h = 100%; for Percentage intact, CWE + PIC 2h / Percentage intact, CWE + PIC 4h / Percentage intact, CWE + PIC 8h / Percentage intact, CWE + PIC 16h / Percentage intact, CWE + PIC 24h / Percentage intact, CWE + PIC 48h / Percentage intact, CWE + PIC 72h / Percentage intact, CWE + PIC 96h: 1 mg/ml in PBS mixed 1:1 with CWE (1 mg/ml protein, pool of 5 donors) in PBS containing PIC (final 1:140 v/v), ratio to imidazole
From the text: (§1) Debridement tissue was obtained from chronic ulcers of 15 patients with therapy resistant (arterio-venous) leg ulcers, according to procedures described earlier. In brief, moist, easily removable debridement material, essentially blood free, was collected from the ulcer surface and divided equally into two different solutions: (i) PBS (B. Braun, Melsungen, Germany), (ii) PBS with protease inhibitor cocktail (PIC) (1:100; v/v) (Sigma-Aldrich, Steinheim, Germany). The mixtures were gently shaken for 1 h at 4°C to elute proteins and centrifuged; the supernatants were stored at -80°C. Total protein content of the supernatant was measured using the BioRad Protein Assay (BioRad Laboratories, Hercules, California, USA) essentially as described by the supplier. Samples were diluted to 1 mg/ml protein and extracts of five different donors were pooled; three different pools of five donors were used in all experiments. The samples are referred to as chronic wound extracts (CWE).
(§2) To determine the stability of the different peptides in CWE, histatins and cytokines were dissolved in PBS at 1 mg/ml. Histatins and cytokines were incubated in a 1:1 ratio with (i) PBS, (ii) CWE in PBS, or (iii) CWE in PBS containing PIC, in a total volume of 25 μl. Imidazole (Sigma-Aldrich) was added as an internal standard, with a final concentration of 100 μg/ml. The mixtures were incubated at 37°C, and samples were taken at 0, 24, 48, 72 and 96 h. For histatins containing mixtures, additional samples were taken after 2, 4, 8 and 16 h of incubation.
(§3) The samples were analyzed with a BioFocus 2000 capillary zone electrophoresis system (Bio-Rad Laboratories, Hercules, CA, USA) equipped with an uncoated fused-silica capillary of internal diameter 50 μm and a length of 24 cm. Samples were loaded by pressure injection (5 psi/sec). Separation was performed at 10 kV (cathode at the detector side) at 20°C using 0.1 M phosphate buffer (pH 2.5) as electrolyte and monitored continuously at 200 nm. Peaks were quantified with the BioFocus Integrator software. In order to quantify the percentage of intact peptides remaining after incubation with CWE, the ratios of histatins, rhIL-6 or rhCXCL8 to internal standard was set at 100% at 0h, and the ratios at the other incubation time points were related to this.

[2] = Stability in chronic wound extracts (CWE), capillary zone electrophoresis; assay type: in vitro ADME, human; settings: 37°C, CZE; for Percentage intact, CWE 2h / Percentage intact, CWE 4h / Percentage intact, CWE 8h / Percentage intact, CWE 16h / Percentage intact, CWE 24h / Percentage intact, CWE 48h / Percentage intact, CWE 72h / Percentage intact, CWE 96h: 1 mg/ml in PBS mixed 1:1 with CWE (1 mg/ml protein, pool of 5 donors) in PBS, UV 200 nm, ratio to imidazole
From the text: as §1, §2, §3

- Percentage intact, CWE + PIC 2h ([1]; experiment 1 of 3): 100%
- Percentage intact, CWE + PIC 2h ([1]; experiment 2 of 3): 98.3314%
- Percentage intact, CWE + PIC 2h ([1]; experiment 3 of 3): 98.9861%
- Percentage intact, CWE + PIC 4h ([1]; experiment 1 of 3): 97.1353%
- Percentage intact, CWE + PIC 4h ([1]; experiment 2 of 3): 95.8953%
- Percentage intact, CWE + PIC 4h ([1]; experiment 3 of 3): 98.3062%
- Percentage intact, CWE + PIC 8h ([1]; experiment 1 of 3): 96.5658%
- Percentage intact, CWE + PIC 8h ([1]; experiment 2 of 3): 92.2482%
- Percentage intact, CWE + PIC 8h ([1]; experiment 3 of 3): 95.5781%
- Percentage intact, CWE + PIC 16h ([1]; experiment 1 of 3): 90.0803%
- Percentage intact, CWE + PIC 16h ([1]; experiment 2 of 3): 88.9151%
- Percentage intact, CWE + PIC 16h ([1]; experiment 3 of 3): 87.9983%
- Percentage intact, CWE + PIC 24h ([1]; 24 h, experiment 1 of 3): 92.5228%
- Percentage intact, CWE + PIC 24h ([1]; 24 h, experiment 2 of 3): 84.6363%
- Percentage intact, CWE + PIC 24h ([1]; 24 h, experiment 3 of 3): 83.1367%
- Percentage intact, CWE + PIC 48h ([1]; experiment 1 of 3): 76.9205%
- Percentage intact, CWE + PIC 48h ([1]; experiment 2 of 3): 78.1025%
- Percentage intact, CWE + PIC 48h ([1]; experiment 3 of 3): 83.127%
- Percentage intact, CWE + PIC 72h ([1]; experiment 1 of 3): 74.0975%
- Percentage intact, CWE + PIC 72h ([1]; experiment 2 of 3): 73.8197%
- Percentage intact, CWE + PIC 72h ([1]; experiment 3 of 3): 80.0857%
- Percentage intact, CWE + PIC 96h ([1]; experiment 1 of 3): 76.9035%
- Percentage intact, CWE + PIC 96h ([1]; experiment 2 of 3): 71.7331%
- Percentage intact, CWE + PIC 96h ([1]; experiment 3 of 3): 77.8206%
- remaining at 24 h, 0.5 mg/ml ([1]; human, with protease inhibitor cocktail (PIC), CWE with protease inhibitor cocktail (final 1:140 v/v), 24 h, mean of 3 independent experiments, read-out: Remaining fraction of intact peptide after 24 h in CWE + PIC): 87%
- Percentage intact, CWE 2h ([2]; 0 h = 100%, experiment 1 of 3): 91.7%
- Percentage intact, CWE 2h ([2]; 0 h = 100%, experiment 2 of 3): 99.5769%
- Percentage intact, CWE 2h ([2]; 0 h = 100%, experiment 3 of 3): 98.2054%
- Percentage intact, CWE 4h ([2]; 0 h = 100%, experiment 1 of 3): 84.5%
- Percentage intact, CWE 4h ([2]; 0 h = 100%, experiment 2 of 3): 100.271%
- Percentage intact, CWE 4h ([2]; 0 h = 100%, experiment 3 of 3): 91.5097%
- Percentage intact, CWE 8h ([2]; 8 h, 0 h = 100%, experiment 1 of 3): 75.7%
- Percentage intact, CWE 8h ([2]; 8 h, 0 h = 100%, experiment 2 of 3): 86.2011%
- Percentage intact, CWE 8h ([2]; 8 h, 0 h = 100%, experiment 3 of 3): 78.6965%
- Percentage intact, CWE 16h ([2]; 0 h = 100%, experiment 1 of 3): 69.2%
- Percentage intact, CWE 16h ([2]; 0 h = 100%, experiment 2 of 3): 65.943%
- Percentage intact, CWE 16h ([2]; 0 h = 100%, experiment 3 of 3): 57.6063%
- Percentage intact, CWE 24h ([2]; 24 h, 0 h = 100%, experiment 1 of 3): 42.5808%
- Percentage intact, CWE 24h ([2]; 24 h, 0 h = 100%, experiment 2 of 3): 50.836%
- Percentage intact, CWE 24h ([2]; 24 h, 0 h = 100%, experiment 3 of 3): 32.6705%
- Percentage intact, CWE 48h ([2]; 0 h = 100%, experiment 1 of 3): 12.2019%
- Percentage intact, CWE 48h ([2]; 0 h = 100%, experiment 2 of 3): 19.3697%
- Percentage intact, CWE 48h ([2]; 0 h = 100%, experiment 3 of 3): 24.0021%
- Percentage intact, CWE 72h ([2]; 0 h = 100%, experiment 1 of 3): 1.49%
- Percentage intact, CWE 72h ([2]; 0 h = 100%, experiment 2 of 3): 2.89%
- Percentage intact, CWE 72h ([2]; 0 h = 100%, experiment 3 of 3): 2.789%
- Percentage intact, CWE 96h ([2]; 0 h = 100%, experiment 1 of 3): 0.001%
- Percentage intact, CWE 96h ([2]; 0 h = 100%, experiment 2 of 3): 0.001%
- Percentage intact, CWE 96h ([2]; 0 h = 100%, experiment 3 of 3): 1.322%
- remaining at 8 h, 0.5 mg/ml ([2]; human, chronic wound extracts (CWE), 1 mg/ml in PBS mixed 1:1 with CWE (1 mg/ml protein, pools of 5 donors), 8 h, 0 h = 100%, mean of 3 independent experiments, read-out: Original amount of peptide remaining intact after 8 h in CWE): 80%
- remaining at 24 h, 0.5 mg/ml ([2]; human, chronic wound extracts (CWE), 1 mg/ml in PBS mixed 1:1 with CWE (1 mg/ml protein, pools of 5 donors), 24 h, 0 h = 100%, mean of 3 independent experiments, read-out: Original amount of peptide remaining intact after 24 h in CWE): 42%
- metabolised at 8 h, 0.5 mg/ml ([2]; human, chronic wound extracts (CWE), incubation with chronic wound extracts, 8 h, read-out: Breakdown (degradation) in CWE in 8 h): ~20%
Sequence: SHREFPFYGDYGS [mad-Hst1]
